Experimental data published in patent US11696903B2, “Compounds and methods for scavenging dicarbonyl electrophiles” (VANDERBILT UNIVERSITY, priority 2019, dated 2023).

Key:
[1] = test system: DNA-histone interaction (histone H4) in A549 cells; test: Salt fractionation of A549 nuclei, histone H4 solubility; format: cell-based, human; settings: A549, 500 μM EtSA 45 min prior to 20 μM AA
Procedure: FIG. 14. LG-lysyl adduct formation on histone H4 decreases DNA-histone interaction. A549 cells were stimulated and given DMSO vehicle (C lanes) or 20 μM AA for 1 h (A lanes). A subgroup of cells was treated with 500 μM EtSA 45 min prior to adding AA (E lanes). Nuclei were extracted with 0.6, 0.9, or 1.2 M NaCl buffer, and the supernatant evaluated by Western blotting for histone H4. Shown is a representative Western blot (A) as well as the pooled results of 4 experiments (B). Different exposure times may have been used for the 0.9 M and 1.2 M bands. ***, p<0.001 by one-way ANOVA followed by Tukey's multiple comparisons post-test. NS, not significant.
60-80% confluent A549 cells were stimulated and treated with AA±500 μM EtSA before scraping cells in lysis media for nuclear isolation as above. After addition of Tritox X-100 and vortexing, 1.5 mL of each sample was aliquoted into an eppendorf and centrifuged to separate nuclei. Pellets were washed with PBS and all buffer removed. Nuclear pellets were resuspended in extraction buffer containing 0.6M, 0.9M, 1.2M or 1.5M NaCl (with 10 mM Tris, pH 7.5, 3 mM MgCl2, 0.5% NP-40, and protease inhibitor cocktail) and incubated 10 min on ice. […] This was sonicated, denatured at 95° C., and analyzed by SDS-PAGE and Western blotting, using Ponceau stain to visualize proteins and confirm equal loading, and anti-H4 antibody (Abeam, Cambridge, Mass.). […]

[2] = test system: Lysyl-LG adducts in AGS cells; test: Lysyl-LG adducts in AGS cells infected with H. pylori PMSS1; format: cell-based, human
Procedure: (§1) FIGS. 15A, 15B, and 15C are graphs showing C57BL/6 (A) or INS-GAS mice (B) were infected for 8 weeks with H. pylori PMSS1. Lysyl-LG adducts were measured in the gastric tissues by LC/ESI/MS/MS. *P<0.05. (C) Lysyl-LG adducts concentration was determined in AGS cells infected (plain bars) or not (open bars) with H. pylori PMSS1 for 24 h, in the presence or absence of EtSA. *P<0.05 vs. uninfected cells. § P<0.05 vs. infected cells without EtSA.
[…] FVB/N insulin-gastrin (INS-GAS) mice and Mongolian gerbils were infected for 8 wk with Hp PMSS1 and 7.13, respectively; EtSA (0.75% in water) was given to animals beginning one wk post-infection. Lys-LG adducts, a marker of electrophile reactions, and EtSA were quantified by LC/EST/MS/MS. Histology was analyzed on H&E staining. DNA damage was evaluated by pH2AX staining. Hp colonization was quantified by culture. Mucosal immune responses were determined by RNA profiling and by Luminex assay. Mice were imaged using PET/CT with ^18F-FDG (inflammation marker) and ^18F—NaF (tumor marker).
To further determine whether ethylsalicylamine (EtSA) prevents the formation of bifunctional electrophiles during H. pylori infection, the […] were treated or not with EtSA 30 min prior to the infection.

lysyl-LG adducts = test: Lysyl-LG adducts in gastric tissues of H. pylori-infected mice (LC/ESI/MS/MS); format: in vivo; settings: EtSA 0.75% in water from one wk post-infection, 8 wk infection
Procedure: as §1
FIG. 17 is a graph showing reduction in the concentration of lysyl-levuglandin adducts in the stomachs of H. pylori infected mice treated with 2-hydroxybenzylamine for 8 weeks.
As discussed further in the Examples, the human gastric epithelial cell line AGS was infected with Hp PMSS1±10 mM EtSA. FVB/N insulin-gastrin (INS-GAS) mice and Mongolian gerbils were infected for 8 wk with Hp PMSS1 and 7.13, respectively; EtSA (0.75% in water) was given to animals beginning one wk post-infection. Lys-LG adducts, a marker of electrophile reactions, and EtSA were quantified by LC/EST/MS/MS. Histology was analyzed on H&E staining. DNA damage was evaluated by pH2AX staining. Hp colonization was quantified by culture. Mucosal immune responses were determined by RNA profiling and by Luminex assay. Mice were imaged using PET/CT with ^18F-FDG (inflammation marker) and ^18F—NaF (tumor marker). […]

[3] = test system: Mongolian gerbils infected with Hp 7.13; test: Gastric cancer development in Mongolian gerbils infected with Hp 7.13; format: in vivo; settings: gerbils infected with Hp 7.13, EtSA 0.75% in water
Procedure: (§2) As discussed further in the Examples, the human gastric epithelial cell line AGS was infected with Hp PMSS1±10 mM EtSA. FVB/N insulin-gastrin (INS-GAS) mice and Mongolian gerbils were infected for 8 wk with Hp PMSS1 and 7.13, respectively; EtSA (0.75% in water) was given to animals beginning one wk post-infection. Lys-LG adducts, a marker of electrophile reactions, and EtSA were quantified by LC/EST/MS/MS. Histology was analyzed on H&E staining. DNA damage was evaluated by pH2AX staining. Hp colonization was quantified by culture. Mucosal immune responses were determined by RNA profiling and by Luminex assay. Mice were imaged using PET/CT with ^18F-FDG (inflammation marker) and ^18F—NaF (tumor marker).

mucosal immune responses = test: Gastritis and mucosal cytokines/chemokines in infected INS-GAS mice; format: in vivo; settings: EtSA
Procedure: as §2

[4] = test system: gastric uptake of 18F-NaF (tumor marker) and 18F-FDG (inflammation marker); test: PET/CT imaging with 18F-FDG and 18F-NaF; format: in vivo; settings: Hp-infected mice, EtSA
Procedure: as §2

DNA damage (pH2AX) = test: DNA damage by pH2AX staining in infected mice; format: in vivo; settings: infected mice with EtSA treatment; p<0.05
Procedure: as §2

## CCc1ccc(O)c(CN)c1 [EtHOBA, 5-ethyl-2-hydroxybenzylamine]
[1]
  elution of histone H4 at lower salt concentrations after AA: reversed
[2]; AGS cells infected with Hp PMSS1 ± 10 mM EtSA
  Lys-LG adduct levels: inhibited
[2]; H. pylori-infected AGS cells, 24 h, 10 μM EtSA
  lysyl-LG adduct concentration: completely attenuated
lysyl-LG adducts
  Lys-LG adducts in infected mice: completely inhibited
[3]
  frequency of gastric cancer development: reduced
Mucosal immune responses
  histologic gastritis: not affected
  tissue cytokines and chemokines: not affected
[4]
  gastric uptake of the tumor marker 18F-NaF: decreased
  uptake of the inflammation marker 18F-FDG: not modified
DNA damage (pH2AX)
  decrease of DNA damage: 71%
